Test results reported in ChEMBL document CHEMBL3297716, “Rhapontigenin suppresses cell migration and invasion by inhibiting the PI3K-dependent Rac1 signaling pathway in MDA-MB-231 human breast cancer cells” (J Nat Prod, 2014).
Activity calls are given as the source filed them. The calls are words filed in the database; no cut-off is given here.

Legend:
[1] = tested on: MDA-MB-231; experiment: (§1) Inhibition of PI3K-dependent Rac1 activation in human MDA-MB-231 cells assessed as suppression of serum-induced cell invasion into matrigel at 25 uM preincubated for 30 mins with cells followed by loading into upper well of matrigel coated filter measured after 15 hrs by Boyden chamber analysis relative to control; assay type: cell-based
[2] = tested on: MDA-MB-231; experiment: Inhibition of PI3K-dependent Rac1 activation in human MDA-MB-231 cells assessed as inhibition of cofilin phosphorylation at 10 to 50 uM after 24 hrs by Western blot analysis; assay type: cell-based
[3] = tested on: MDA-MB-231; experiment: Effect on total PAK1 protein level in human MDA-MB-231 cells at 10 to 50 uM after 24 hrs by Western blot analysis; assay type: functional, cell-based
[4] = tested on: MDA-MB-231; experiment: Inhibition of PI3K-dependent Rac1 activation in human MDA-MB-231 cells assessed as inhibition of PAK1 phosphorylation at 10 to 50 uM after 24 hrs by Western blot analysis; assay type: cell-based
[5] = tested on: MDA-MB-231; experiment: Inhibition of PI3K-dependent Rac1 activation in human MDA-MB-231 cells assessed as downregulation of Arp-3 protein expression at 10 to 50 uM after 24 hrs by Western blot analysis; assay type: cell-based
[6] = tested on: MDA-MB-231; experiment: Inhibition of PI3K-dependent Rac1 activation in human MDA-MB-231 cells assessed as downregulation of Arp-2 protein expression at 10 to 50 uM after 24 hrs by Western blot analysis; assay type: cell-based
[7] = tested on: MDA-MB-231; experiment: Effect on total cofilin protein level in human MDA-MB-231 cells at 10 to 50 uM after 24 hrs by Western blot analysis; assay type: functional, cell-based
[8] = species: Homo sapiens; experiment: Inhibition of PI3K-dependent Rac1 activation in human MDA-MB-231 cells assessed as suppression of serum-induced cell migration at 50 uM after 24 hrs by wound-healing assay relative to control; assay type: cell-based
[9] = tested on: MDA-MB-231; experiment: Inhibition of PI3K-dependent Rac1 activation in human MDA-MB-231 cells at 10 uM after 30 mins by ELISA relative to untreated control; assay type: cell-based
[10] = tested on: MDA-MB-231; experiment: Effect on total AKT protein level in human MDA-MB-231 cells at 10 to 50 uM after 24 hrs by Western blot analysis; assay type: functional, cell-based
[11] = tested on: MDA-MB-231; experiment: Inhibition of PI3K-dependent Rac1 activation in human MDA-MB-231 cells assessed as inhibition of LIMK1/2 phosphorylation at 10 to 50 uM after 24 hrs by Western blot analysis; assay type: cell-based
[12] = tested on: MDA-MB-231; experiment: Inhibition of PI3K in human MDA-MB-231 cells assessed as downregulation of activated Rac1-GTP protein expression at 50 uM after 30 mins by Western blot analysis; assay type: cell-based
[13] = tested on: MDA-MB-231; experiment: Cytotoxicity against human MDA-MB-231 cells assessed as cell viability at 100 to 200 uM after 24 hrs by MTT assay; assay type: cell-based; details: mda-mb-231, 24 h
[14] = tested on: MDA-MB-231; experiment: Inhibition of PI3K in human MDA-MB-231 cells assessed as inhibition of AKT phosphorylation at 10 to 50 uM after 24 hrs by Western blot analysis; assay type: cell-based
[15] = tested on: MDA-MB-231; experiment: Cytotoxicity against human MDA-MB-231 cells assessed as cell viability up to 50 uM after 24 hrs by MTT assay; assay type: cell-based; details: mda-mb-231, 24 h
[16] = tested on: MDA-MB-231; experiment: Inhibition of PI3K-dependent Rac1 activation in human MDA-MB-231 cells assessed as downregulation of WAVE-2 protein expression at 10 to 50 uM after 24 hrs by Western blot analysis; assay type: cell-based
[17] = tested on: MDA-MB-231; experiment: Inhibition of PI3K-dependent Rac1 activation in human MDA-MB-231 cells assessed as inhibition of lamellipodia formation at 50 uM after 24 hrs by rhodamine phalloidin/DAPI staining-based confocal microscopic analysis; assay type: cell-based
[18] = tested on: MDA-MB-231; experiment: Inhibition of PI3K phosphorylation in human MDA-MB-231 cells at 10 to 50 uM after 24 hrs by Western blot analysis; assay type: cell-based
[19] = species: Homo sapiens; experiment: Inhibition of PI3K-dependent Rac1 activation in human MDA-MB-231 cells assessed as suppression of serum-induced cell migration at 10 uM after 24 hrs by wound-healing assay relative to control; assay type: cell-based
[20] = tested on: MDA-MB-231; experiment: as §1, with “10” for “25”; assay type: cell-based
[21] = tested on: MDA-MB-231; experiment: Inhibition of PI3K-dependent Rac1 activation in human MDA-MB-231 cells at 50 uM after 30 mins by ELISA relative to untreated control; assay type: cell-based
[22] = tested on: MDA-MB-231; experiment: as §1, with “50” for “25”; assay type: cell-based
[23] = tested on: MDA-MB-231; experiment: Effect on total LIMK1/2 protein level in human MDA-MB-231 cells at 10 to 50 uM after 24 hrs by Western blot analysis; assay type: functional, cell-based
[24] = tested on: MDA-MB-231; experiment: Inhibition of PI3K-dependent Rac1 activation in human MDA-MB-231 cells at 25 uM after 30 mins by ELISA relative to untreated control; assay type: cell-based
[25] = species: Homo sapiens; experiment: Inhibition of PI3K-dependent Rac1 activation in human MDA-MB-231 cells assessed as suppression of serum-induced cell migration at 25 uM after 24 hrs by wound-healing assay relative to control; assay type: cell-based
[26] = tested on: MDA-MB-231; experiment: Effect on total Rac1 protein expression in human MDA-MB-231 cells after 30 mins by Western blot analysis; assay type: functional, cell-based
[27] = tested on: MDA-MB-231; experiment: Effect on total PI3K protein level in human MDA-MB-231 cells at 10 to 50 uM after 24 hrs by Western blot analysis; assay type: functional, cell-based
[28] = tested on: MDA-MB-231; experiment: Effect on total AKT protein level in human MDA-MB-231 cells at 1 to 10 uM after 24 hrs by Western blot analysis; assay type: functional, cell-based
[29] = tested on: MDA-MB-231; experiment: Inhibition of PI3K in human MDA-MB-231 cells assessed as inhibition of AKT phosphorylation at 1 to 10 uM after 24 hrs by Western blot analysis; assay type: cell-based

With `COc1ccc(/C=C/c2cc(O)cc(O)c2)cc1O` the inhibition [1] was 50%, the inhibition [2] was “Active” and the Activity [3] was “inactive”. The inhibition [4] was “Active”, the inhibition [5] was “Active” and the inhibition [6] was “Active”. For the same molecule, the Activity [7] was “inactive”, the inhibition [8] was 70% and the inhibition [9] was 17%. The Activity [10] was “inactive”, the inhibition [11] was “Active” and the inhibition [12] was “Active”. For the same molecule, the Activity [13] was “Toxic”, the inhibition [14] was “Active” and the Activity [15] was “Non-toxic”. The inhibition [16] was “Active”, the inhibition [17] was “Active” and the inhibition [18] was “Active”. For the same molecule, the inhibition [19] was 25%, the inhibition [20] was 26% and the inhibition [21] was 44%. For the same molecule, the inhibition [22] was 68%, the Activity [23] was “inactive” and the inhibition [24] was 25%. For the same molecule, the inhibition [25] was 44%, the Activity [26] was “inactive” and the Activity [27] was “inactive”.

For `COC[C@H]1OC(=O)c2coc3c2[C@@]1(C)C1=C(C3=O)[C@@H]2CCC(=O)[C@@]2(C)C[C@H]1OC(C)=O`, the Activity [28] was “inactive” and the inhibition [29] was “Active”.
